{"source": "PubChem BioAssay AID2060899", "about": "(Molecular Pharmacology Branch, DTP, NCI, 2025);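 further: spheroids exposed to compounds for seven days before readout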;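 on viability, T/C: 100% = DMSO vehicle control viability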", "test_system": "565726-208-R1-J5-PDC complex spheroids, growth inhibition", "test": "Anticancer human tumor 565726-208-R1-J5-PDC patient-derived pancreatic adenocarcinoma cell line growth inhibition [RAS]", "settings": "for IC50: curve of first compound; for viability, T/C: stronger effect = lower value", "text": "RAS pathway inhibitors in Combinations in Complex Spheroids\nA high-throughput screen of multi-cell type tumor spheroids was designed to identify active combinations of RAS pathway inhibitors and targeted small molecules. Complex spheroids include a stromal component modeled by human endothelial cells (HUVEC) and fibroblasts modeled by human mesenchymal stem cells (MSCs). The concentration ranges selected for each drug and investigational agent were based upon clinically achievable concentrations if the clinical Cmax of the agent was known.\nCompounds. The drugs and investigational agents: abemaciclib (NSC768073), cobimetinib (NSC768068), divarasib (GDC6063, NSC841802), docetaxel (NSC628503), GDC-1971 (RLY-1971, NSC841576), gemcitabine (NSC613327), inavolisib (NSC800729), ipatasertib (NSC767898), KB-0742 (NSC834161), MRTX-1133 (NSC836407), osimertinib (NSC779217), RMC-4630 (NSC839698), RMC-6236 (NSC851965), RMC-6291 (NSC852671), Ro-3306 (NSC812927), sapanisertib (NSC764658), SN-38 (NSC673596), staurosporine (NSC755774), SY5609 (NSC837396), and tovorafenib (DAY101, NSC766906), were obtained from the National Cancer Institute (NCI) Developmental Therapeutics Program Chemical Repository. The FDA-approved anticancer drug set is available from the NCI Developmental Therapeutics Program. […] The stock solutions were prepared in dimethyl sulfoxide (DMSO, Sigma-Aldrich, St. Louis, MO, cat. D2650) at 800-fold the tested concentration and stored at -70 degrees C prior to their use. All drugs and investigational agents were tested over a range starting from a high concentration at or near the clinical Cmax and decreasing in half-log increments. If the clinical Cmax for an agent had not been determined, the highest concentration tested was 10 microM.\nCell Culture. All cells were maintained in an incubator at 37 degrees C and 5% CO2 with 95% humidity. The PDC lines were cultured according to standard operating procedures established by the NCI PDMR. All PDCs were thawed and cultured in Matrigel-coated flasks prepared with a working solution of 1X Ham's F-12 nutrient mix, without supplementation (Invitrogen, Waltham, MA, cat. 11765054), 100 U/mL penicillin-streptomycin (Invitrogen, cat. 15140122), and 2.5% Matrigel (Corning Inc., Corning, NY, cat. 354248) for the first three passages. The 362531-283-R-J2-PDC and 782815-120-R-J1-PDC lines were cultured in 6C/Colon 1B media, which includes advanced DMEM/F-12 (Thermo Fisher Scientific, cat. 12634028), 10 mM HEPES (Thermo Fisher Scientific, cat. 15630080), 1X GlutaMAX supplement (Thermo Fisher Scientific, cat. 35050061), 0.1 mg/mL primocin (InvivoGen, San Diego, CA, cat. ant-pm-2), 10% defined fetal bovine serum, heat inactivated (HyClone Laboratories Inc., Logan, UT, cat. SH30070.03HI), 50% L-WRN conditioned media (ATCC, cat. CRL-3276), 1.25 mM N-Acetyl-L-cysteine (Sigma-Aldrich, cat. A9165), 10 mM nicotinamide (Sigma-Aldrich, cat. N0636), 1X B-27 supplement (Thermo Fisher Scientific, cat. 17504044), 1X N-2 supplement (Thermo Fisher Scientific, cat. 17502048), 50 ng/mL human EGF (Thermo Fisher Scientific, cat. PHG0311), and 10 microM Y-27632 dihydrochloride (Tocris Bioscience, cat. 1254). The K12877-001-R-J1-PDC line was cultured in 6I media, which includes all 6C/Colon 1B media plus 10 ng/mL human FGF-10 (PeproTech, cat. 100-26), 1 ng/mL human FGF-2 (PeproTech, cat. 100-18B), 1 µM prostaglandin E2 (Tocris Bioscience, cat. 2296), […] hydrocortisone (Sigma-Aldrich, cat. H4001), and […] bovine insulin (Sigma-Aldrich, cat. I6634). The K86415-001-R-J1-PDC line was cultured in 6D media, which includes all 6C/Colon 1B media components minus the L-WRN conditioned media. The 485176-168-R4-J1-PDC was cultured in PANC media, which includes all 6C/Colon 1B media plus 100 ng/mL human FGF-10 (PeproTech, cat. 100-26), 500 nM SB-431542 (Selleckchem, cat. S1067), and 10 nM gastrin (Tocris Bioscience, cat. 3006). […]", "data": [{"smiles": "CC(C)NCC(C(=O)N1CCN(c2ncnc3c2C(C)CC3O)CC1)c1ccc(Cl)cc1", "note": "(configuration not stated) + CCn1c(-c2cccnc2C(C)OC)c2c3cc(ccc31)N1CCOC(CC(NC(=O)C(C(C)C)N(C)C(=O)C3(F)CCN(C(=O)C#CC(C)(C)N(C)C)CC3)C(=O)N3CCCC(N3)C(=O)OCC(C)(C)C2)C1", "values": [{"measurement": "IC50", "setting": "second compound 0.000949 µM", "result": "> 10", "unit": "µM"}, {"measurement": "IC50", "setting": "second compound 0.003 µM", "result": "> 10", "unit": "µM"}, {"measurement": "IC50", "setting": "second compound 0.00949 µM", "result": "> 10", "unit": "µM"}, {"measurement": "IC50", "setting": "second compound 0.03 µM", "result": "> 10", "unit": "µM"}, {"measurement": "IC50", "setting": "second compound 0.0949 µM", "result": "> 10", "unit": "µM"}, {"measurement": "IC50", "setting": "second compound 0.3 µM", "result": 7.56, "unit": "µM"}, {"measurement": "viability, T/C", "setting": "second compound 0.000949 µM, first compound 0.0316 µM", "result": 106, "unit": "%"}, {"measurement": "viability, T/C", "setting": "second compound 0.000949 µM, first compound 0.1 µM", "result": 94.1, "unit": "%"}, {"measurement": "viability, T/C", "setting": "second compound 0.000949 µM, first compound 0.316 µM", "result": 97.6, "unit": "%"}, {"measurement": "viability, T/C", "setting": "second compound 0.000949 µM, first compound 1 µM", "result": 85.1, "unit": "%"}, {"measurement": "viability, T/C", "setting": "second compound 0.000949 µM, first compound 3.16 µM", "result": 74, "unit": "%"}, {"measurement": "viability, T/C", "setting": "second compound 0.000949 µM, first compound 10 µM", "result": 56.6, "unit": "%"}, {"measurement": "viability, T/C", "setting": "second compound 0.003 µM, first compound 0.0316 µM", "result": 105, "unit": "%"}, {"measurement": "viability, T/C", "setting": "second compound 0.003 µM, first compound 0.1 µM", "result": 99.2, "unit": "%"}, {"measurement": "viability, T/C", "setting": "second compound 0.003 µM, first compound 0.316 µM", "result": 105, "unit": "%"}, {"measurement": "viability, T/C", "setting": "second compound 0.003 µM, first compound 1 µM", "result": 94.7, "unit": "%"}, {"measurement": "viability, T/C", "setting": "second compound 0.003 µM, first compound 3.16 µM", "result": 84.2, "unit": "%"}, {"measurement": "viability, T/C", "setting": "second compound 0.003 µM, first compound 10 µM", "result": 59.4, "unit": "%"}, {"measurement": "viability, T/C", "setting": "second compound 0.00949 µM, first compound 0.0316 µM", "result": 96, "unit": "%"}, {"measurement": "viability, T/C", "setting": "second compound 0.00949 µM, first compound 0.1 µM", "result": 104, "unit": "%"}, {"measurement": "viability, T/C", "setting": "second compound 0.00949 µM, first compound 0.316 µM", "result": 94.3, "unit": "%"}, {"measurement": "viability, T/C", "setting": "second compound 0.00949 µM, first compound 1 µM", "result": 99.8, "unit": "%"}, {"measurement": "viability, T/C", "setting": "second compound 0.00949 µM, first compound 3.16 µM", "result": 88.1, "unit": "%"}, {"measurement": "viability, T/C", "setting": "second compound 0.00949 µM, first compound 10 µM", "result": 57.1, "unit": "%"}, {"measurement": "viability, T/C", "setting": "second compound 0.03 µM, first compound 0.0316 µM", "result": 101, "unit": "%"}, {"measurement": "viability, T/C", "setting": "second compound 0.03 µM, first compound 0.1 µM", "result": 95.5, "unit": "%"}, {"measurement": "viability, T/C", "setting": "second compound 0.03 µM, first compound 0.316 µM", "result": 106, "unit": "%"}, {"measurement": "viability, T/C", "setting": "second compound 0.03 µM, first compound 1 µM", "result": 89.4, "unit": "%"}, {"measurement": "viability, T/C", "setting": "second compound 0.03 µM, first compound 3.16 µM", "result": 84.4, "unit": "%"}, {"measurement": "viability, T/C", "setting": "second compound 0.03 µM, first compound 10 µM", "result": 56.5, "unit": "%"}, {"measurement": "viability, T/C", "setting": "second compound 0.0949 µM, first compound 0.0316 µM", "result": 93.5, "unit": "%"}, {"measurement": "viability, T/C", "setting": "second compound 0.0949 µM, first compound 0.1 µM", "result": 98.8, "unit": "%"}, {"measurement": "viability, T/C", "setting": "second compound 0.0949 µM, first compound 0.316 µM", "result": 96.9, "unit": "%"}, {"measurement": "viability, T/C", "setting": "second compound 0.0949 µM, first compound 1 µM", "result": 86.5, "unit": "%"}, {"measurement": "viability, T/C", "setting": "second compound 0.0949 µM, first compound 3.16 µM", "result": 85.5, "unit": "%"}, {"measurement": "viability, T/C", "setting": "second compound 0.0949 µM, first compound 10 µM", "result": 57.7, "unit": "%"}, {"measurement": "viability, T/C", "setting": "second compound 0.3 µM, first compound 0.0316 µM", "result": 95.2, "unit": "%"}, {"measurement": "viability, T/C", "setting": "second compound 0.3 µM, first compound 0.1 µM", "result": 87, "unit": "%"}, {"measurement": "viability, T/C", "setting": "second compound 0.3 µM, first compound 0.316 µM", "result": 85.8, "unit": "%"}, {"measurement": "viability, T/C", "setting": "second compound 0.3 µM, first compound 1 µM", "result": 80.8, "unit": "%"}, {"measurement": "viability, T/C", "setting": "second compound 0.3 µM, first compound 3.16 µM", "result": 70.7, "unit": "%"}, {"measurement": "viability, T/C", "setting": "second compound 0.3 µM, first compound 10 µM", "result": 43.2, "unit": "%"}]}]}
